Measurements as given in US6569881B1, “Substituted benzimidazole, the production thereof and the use thereof as means against parasitic protozoa” (Bayer Aktiengesellschaft, priority 1999, dated 2003).

Experiments:
Format in all cases: in vivo, chicken chicks
[1] = tested on: Eimeria acervulina, Eimeria maxima and Eimeria tenella; assay: Cage experiments coccidiosis/chicks, mixed experimental infection; conditions: for dropping scores / lesion score: grade 0 to 6
Procedure: (§1) The efficacy of the compounds according to the invention can be confirmed, for example, in cage experiments using the following experimental arrangement, in which the animals are treated with the respective individual components and with the mixtures of the individual components.
(§2) An active compound-containing feed is prepared in such a way that the required amount of active compound is thoroughly mixed with a nutritionally balanced animal feed, e.g. with the chick feed indicated below.
(§3) 8 to 12 day-old male chicken chicks raised under coccidea-free conditions (e.g. LSL Brinkschulte/Senden) receive the compounds according to the invention (test substances) from 3 days before (day -3) the infection (=a.i.) until 8 (9) days after the infection (=p.i.) with the feed in the concentration indicated in ppm. Three animals are kept in each cage. Per dose, one to a number of groups of this type are employed. Infection is carried out by means of a stomach tube directly into the crop using approximately 100,000 sporulated oocysts of Eimeria acervulina and with in each case approximately 30,000 oocysts of E. maxima and 40,000 sporulated oocysts of E. tenella. These are highly virulent strains. The exact infectious dose is adjusted such that if possible one of three experimentally infected untreated chicks dies due to infection. For the assessment of the efficacy, the following criteria are taken into consideration: weight increase from the start of the experiment to the end of the experiment, death rate due to infection, macroscopic assessment of the faeces with respect to diarrhoea and excretion of blood on days 5 and 7 p.i. (grade 0 to 6), macroscopic grade of the intestinal mucous membrane, in particular of the cecums (grade 0 to 6) and the oocyst excretion and also the proportion (in %) of the oocysts sporulating within 24 hours. The number of oocysts in the faeces was determined with the aid of the McMaster counting chamber (see Engelbrecht and coworkers “Parasitologische Arbeitsmethoden in Medizin und Veterinärmedizin, [Parasitological working methods in medicine and veterinary medicine] Akademie-Verlag, Berlin (1965)). The individual findings are related to the untreated noninfected control groups and an overall grade is calculated (cf. A. Haberkorn (1986), pp. 263 to 270 in Research in Avian Coccidiosis ed L. R. McDougald, L. P. Joyner, P. L. Long Proceedings of the Georgia Coccidiosis Conference Nov, 18-20, 1985 Athens/Ga. USA).
In the column “ppm”, the concentration of the active compound employed in the feed is indicated in ppm.
In the column “mortality”, the percentage of the animals which have died is indicated under % and the number of the animals which have died/animals employed in the experiment is indicated under n.
In the column “weight % of not inf. control”, the ratio of the weight of the treated animals to the weight of the noninfected control group is indicated.
(§4) In the columns “dropping scores”, “lesion score” and “oocyst control”, individual details of the action are given.
In the column “% efficacy”, the overall rating is assessed; 0% means no action, 100% means complete action.

Eimeria maxima = assay: Cage experiments coccidiosis/chicks, Eimeria maxima part of the mixed infection; conditions: for Efficacy against Eimeria maxima (grade): second symbol of cell; on Efficacy against Eimeria maxima (grade): key: 2 = complete action; 1 = weak action; 0 = inactive; D = death
Procedure: as §1, §2, §3, §4

Eimeria acervulina = assay: Cage experiments coccidiosis/chicks, Eimeria acervulina part of the mixed infection; conditions: for Efficacy against Eimeria acervulina (grade): first symbol of cell; on Efficacy against Eimeria acervulina (grade): key: 2 = complete action; 1 = weak action; 0 = inactive; D = death
Procedure: as §1, §2, §3, §4

Eimeria tenella = assay: Cage experiments coccidiosis/chicks, Eimeria tenella part of the mixed infection; conditions: for Efficacy against Eimeria tenella (grade): third symbol of cell; on Efficacy against Eimeria tenella (grade): key: 2 = complete action; 1 = weak action; 0 = inactive; D = death
Procedure: as §1, §2, §3, §4

[2] = 2.5 ppm in feed, listed as Ex. 13
[3] = 5 ppm in feed, listed as Ex. 13
[4] = 10 ppm in feed, listed as Ex. 13
[5] = 5 ppm in feed, listed as Ex. 15
[6] = 10 ppm in feed, listed as Ex. 15

Cc1oc(=O)oc1Cn1c(C(F)(F)F)nc2cc(Cl)c(C(F)(F)F)cc21 [Example 18]
% efficacy tot. ([1]; 5 ppm in feed): 7%
mortality % ([1]; 5 ppm in feed): 0%
mortality n (died/employed) ([1]; 5 ppm in feed): 0/3
oocyst in % of inf. control tot. ([1]; 5 ppm in feed): >100%
weight % of not inf. control ([1]; 5 ppm in feed): 33%
dropping scores ([1]; 5 ppm in feed): 6
lesion score ([1]; 5 ppm in feed): 6
% efficacy tot. ([1]; 10 ppm in feed): 5%
mortality % ([1]; 10 ppm in feed): 0%
mortality n (died/employed) ([1]; 10 ppm in feed): 0/3
oocyst in % of inf. control tot. ([1]; 10 ppm in feed): >100%
weight % of not inf. control ([1]; 10 ppm in feed): 30%
dropping scores ([1]; 10 ppm in feed): 6
lesion score ([1]; 10 ppm in feed): 6
% efficacy tot. ([1]; 25 ppm in feed): 75%
mortality % ([1]; 25 ppm in feed): 0%
mortality n (died/employed) ([1]; 25 ppm in feed): 0/3
oocyst in % of inf. control tot. ([1]; 25 ppm in feed): 1%
weight % of not inf. control ([1]; 25 ppm in feed): 82%
dropping scores ([1]; 25 ppm in feed): 1
lesion score ([1]; 25 ppm in feed): 3
oocyst in % of inf. control max. (Eimeria maxima; 5 ppm in feed): >100%
oocyst in % of inf. control max. (Eimeria maxima; 10 ppm in feed): 0%
oocyst in % of inf. control max. (Eimeria maxima; 25 ppm in feed): 20%
Efficacy against Eimeria maxima (grade) (Eimeria maxima; Dose 5 ppm): 0
Efficacy against Eimeria maxima (grade) (Eimeria maxima; Dose 10 ppm): 0
Efficacy against Eimeria maxima (grade) (Eimeria maxima; Dose 25 ppm): 1
oocyst in % of inf. control ac. (Eimeria acervulina; 5 ppm in feed): >100%
oocyst in % of inf. control ac. (Eimeria acervulina; 10 ppm in feed): >100%
oocyst in % of inf. control ac. (Eimeria acervulina; 25 ppm in feed): 0%
Efficacy against Eimeria acervulina (grade) (Eimeria acervulina; Dose 5 ppm): 0
Efficacy against Eimeria acervulina (grade) (Eimeria acervulina; Dose 10 ppm): 0
Efficacy against Eimeria acervulina (grade) (Eimeria acervulina; Dose 25 ppm): 2
oocyst in % of inf. control ten. (Eimeria tenella; 5 ppm in feed): >100%
oocyst in % of inf. control ten. (Eimeria tenella; 10 ppm in feed): >100%
oocyst in % of inf. control ten. (Eimeria tenella; 25 ppm in feed): 1%
Efficacy against Eimeria tenella (grade) (Eimeria tenella; Dose 5 ppm): 0
Efficacy against Eimeria tenella (grade) (Eimeria tenella; Dose 10 ppm): 0
Efficacy against Eimeria tenella (grade) (Eimeria tenella; Dose 25 ppm): 2

Cc1oc(=O)oc1Cn1c(C(F)(F)F)nc2cc(C(F)(F)F)c(C(F)(F)F)cc21 [Example 13]
% efficacy tot. ([1]; 2.5 ppm in feed): 15%
mortality % ([1]; 2.5 ppm in feed): 33%
mortality n (died/employed) ([1]; 2.5 ppm in feed): 1/3
oocyst in % of inf. control tot. ([1]; 2.5 ppm in feed): 41%
weight % of not inf. control ([1]; 2.5 ppm in feed): 61%
dropping scores ([1]; 2.5 ppm in feed): 6
lesion score ([1]; 2.5 ppm in feed): 6
% efficacy tot. [1, 2]: 16%
mortality % [1, 2]: 0%
mortality n (died/employed) [1, 2]: 0/3
oocyst in % of inf. control tot. [1, 2]: 57%
% efficacy tot. ([1]; 5 ppm in feed): 50%
mortality % ([1]; 5 ppm in feed): 33%
mortality n (died/employed) ([1]; 5 ppm in feed): 1/3
oocyst in % of inf. control tot. ([1]; 5 ppm in feed): 4%
weight % of not inf. control ([1]; 5 ppm in feed): 74%
dropping scores ([1]; 5 ppm in feed): 6
lesion score ([1]; 5 ppm in feed): 6
lesion score [1, 3]: 4.6
% efficacy tot. [1, 3]: 32%
mortality % [1, 3]: 0%
mortality n (died/employed) [1, 3]: 0/3
oocyst in % of inf. control tot. [1, 3]: 26%
% efficacy tot. ([1]; 7.5 ppm in feed): 74%
mortality % ([1]; 7.5 ppm in feed): 0%
mortality n (died/employed) ([1]; 7.5 ppm in feed): 0/3
oocyst in % of inf. control tot. ([1]; 7.5 ppm in feed): 0%
weight % of not inf. control ([1]; 7.5 ppm in feed): 81%
dropping scores ([1]; 7.5 ppm in feed): 6
lesion score ([1]; 7.5 ppm in feed): 5.3
% efficacy tot. ([1]; 10 ppm in feed): 73%
mortality % ([1]; 10 ppm in feed): 0%
mortality n (died/employed) ([1]; 10 ppm in feed): 0/3
oocyst in % of inf. control tot. ([1]; 10 ppm in feed): 0%
weight % of not inf. control ([1]; 10 ppm in feed): 83%
dropping scores ([1]; 10 ppm in feed): 6
lesion score ([1]; 10 ppm in feed): 4.3
lesion score [1, 4]: 5.3
% efficacy tot. [1, 4]: 78%
weight % of not inf. control [1, 4]: 76%
oocyst in % of inf. control max. (Eimeria maxima; 2.5 ppm in feed): 0%
oocyst in % of inf. control max. (Eimeria maxima; [2]): 55%
oocyst in % of inf. control max. (Eimeria maxima; 5 ppm in feed): 0%
oocyst in % of inf. control max. (Eimeria maxima; [3]): 36%
oocyst in % of inf. control max. (Eimeria maxima; 7.5 ppm in feed): 0%
oocyst in % of inf. control max. (Eimeria maxima; 10 ppm in feed): 0%
Efficacy against Eimeria maxima (grade) (Eimeria maxima; Dose 5 ppm): 1
Efficacy against Eimeria maxima (grade) (Eimeria maxima; Dose 10 ppm): 2
Efficacy against Eimeria maxima (grade) (Eimeria maxima; Dose 25 ppm): D D D
oocyst in % of inf. control ac. (Eimeria acervulina; 2.5 ppm in feed): 55%
oocyst in % of inf. control ac. (Eimeria acervulina; [2]): 33%
oocyst in % of inf. control ac. (Eimeria acervulina; 5 ppm in feed): 5%
oocyst in % of inf. control ac. (Eimeria acervulina; [3]): 25%
oocyst in % of inf. control ac. (Eimeria acervulina; 7.5 ppm in feed): 0%
oocyst in % of inf. control ac. (Eimeria acervulina; 10 ppm in feed): 0%
Efficacy against Eimeria acervulina (grade) (Eimeria acervulina; Dose 5 ppm): 2
Efficacy against Eimeria acervulina (grade) (Eimeria acervulina; Dose 10 ppm): 2
Efficacy against Eimeria acervulina (grade) (Eimeria acervulina; Dose 25 ppm): D D D
oocyst in % of inf. control ten. (Eimeria tenella; 2.5 ppm in feed): 27%
oocyst in % of inf. control ten. (Eimeria tenella; [2]): >100%
oocyst in % of inf. control ten. (Eimeria tenella; 5 ppm in feed): 3%
oocyst in % of inf. control ten. (Eimeria tenella; [3]): 27%
oocyst in % of inf. control ten. (Eimeria tenella; 7.5 ppm in feed): 0%
oocyst in % of inf. control ten. (Eimeria tenella; 10 ppm in feed): 0%
Efficacy against Eimeria tenella (grade) (Eimeria tenella; Dose 5 ppm): 1
Efficacy against Eimeria tenella (grade) (Eimeria tenella; Dose 10 ppm): 2
Efficacy against Eimeria tenella (grade) (Eimeria tenella; Dose 25 ppm): D D D

Cc1oc(=O)oc1Cn1c(C(F)(F)F)nc2c(Cl)cc3c(c21)OC(F)(F)C(F)(F)O3 [Example 15]
% efficacy tot. ([1]; 2.5 ppm in feed): 43%
mortality % ([1]; 2.5 ppm in feed): 0%
mortality n (died/employed) ([1]; 2.5 ppm in feed): 0/3
oocyst in % of inf. control tot. ([1]; 2.5 ppm in feed): 48%
weight % of not inf. control ([1]; 2.5 ppm in feed): 80%
dropping scores ([1]; 2.5 ppm in feed): 1
lesion score ([1]; 2.5 ppm in feed): 6
% efficacy tot. ([1]; 5 ppm in feed): 75%
mortality % ([1]; 5 ppm in feed): 0%
mortality n (died/employed) ([1]; 5 ppm in feed): 0/3
oocyst in % of inf. control tot. ([1]; 5 ppm in feed): 1%
weight % of not inf. control ([1]; 5 ppm in feed): 85%
dropping scores ([1]; 5 ppm in feed): 6
lesion score ([1]; 5 ppm in feed): 1
lesion score [1, 5]: 6
% efficacy tot. [1, 5]: 23%
oocyst in % of inf. control tot. [1, 5]: 31%
weight % of not inf. control [1, 5]: 75%
% efficacy tot. ([1]; 7.5 ppm in feed): 60%
mortality % ([1]; 7.5 ppm in feed): 0%
mortality n (died/employed) ([1]; 7.5 ppm in feed): 0/3
oocyst in % of inf. control tot. ([1]; 7.5 ppm in feed): 13%
weight % of not inf. control ([1]; 7.5 ppm in feed): >100%
dropping scores ([1]; 7.5 ppm in feed): 6
lesion score ([1]; 7.5 ppm in feed): 2
% efficacy tot. ([1]; 10 ppm in feed): 91%
mortality % ([1]; 10 ppm in feed): 0%
mortality n (died/employed) ([1]; 10 ppm in feed): 0/3
oocyst in % of inf. control tot. ([1]; 10 ppm in feed): 0%
weight % of not inf. control ([1]; 10 ppm in feed): 82%
dropping scores ([1]; 10 ppm in feed): 0
lesion score ([1]; 10 ppm in feed): 0
lesion score [1, 6]: 1
% efficacy tot. [1, 6]: 89%
oocyst in % of inf. control tot. [1, 6]: 1%
weight % of not inf. control [1, 6]: 92%
mortality % ([1]; 25 ppm in feed): 100%
mortality n (died/employed) ([1]; 25 ppm in feed): 3/3
dropping scores ([1]; 25 ppm in feed): 0
oocyst in % of inf. control max. (Eimeria maxima; 2.5 ppm in feed): 0%
oocyst in % of inf. control max. (Eimeria maxima; 5 ppm in feed): 2%
oocyst in % of inf. control max. (Eimeria maxima; [5]): 0%
oocyst in % of inf. control max. (Eimeria maxima; 7.5 ppm in feed): 0%
oocyst in % of inf. control max. (Eimeria maxima; 10 ppm in feed): 0%
Efficacy against Eimeria maxima (grade) (Eimeria maxima; Dose 5 ppm): 0
Efficacy against Eimeria maxima (grade) (Eimeria maxima; Dose 10 ppm): 1
Efficacy against Eimeria maxima (grade) (Eimeria maxima; Dose 25 ppm): 2
oocyst in % of inf. control ac. (Eimeria acervulina; 2.5 ppm in feed): 48%
oocyst in % of inf. control ac. (Eimeria acervulina; 5 ppm in feed): 2%
oocyst in % of inf. control ac. (Eimeria acervulina; [5]): 49%
oocyst in % of inf. control ac. (Eimeria acervulina; 7.5 ppm in feed): 16%
oocyst in % of inf. control ac. (Eimeria acervulina; 10 ppm in feed): 0%
oocyst in % of inf. control ac. (Eimeria acervulina; [6]): 2%
Efficacy against Eimeria acervulina (grade) (Eimeria acervulina; Dose 5 ppm): 1
Efficacy against Eimeria acervulina (grade) (Eimeria acervulina; Dose 10 ppm): 2
Efficacy against Eimeria acervulina (grade) (Eimeria acervulina; Dose 25 ppm): 2
oocyst in % of inf. control ten. (Eimeria tenella; 2.5 ppm in feed): 48%
oocyst in % of inf. control ten. (Eimeria tenella; 5 ppm in feed): 0%
oocyst in % of inf. control ten. (Eimeria tenella; [5]): 23%
oocyst in % of inf. control ten. (Eimeria tenella; 7.5 ppm in feed): 12%
oocyst in % of inf. control ten. (Eimeria tenella; 10 ppm in feed): 0%
oocyst in % of inf. control ten. (Eimeria tenella; [6]): 1%
Efficacy against Eimeria tenella (grade) (Eimeria tenella; Dose 5 ppm): 1
Efficacy against Eimeria tenella (grade) (Eimeria tenella; Dose 10 ppm): 2
Efficacy against Eimeria tenella (grade) (Eimeria tenella; Dose 25 ppm): 1
